From paper PMC7692329, “Inhibitory Effect of AB-PINACA, Indazole Carboxamide Synthetic Cannabinoid, on Human Major Drug-Metabolizing Enzymes and Transporters” (Pharmaceutics, 2020)
“Also recorded” adds a separate entry of the source. Like-named read-outs stand apart in the source and are kept apart here.

Legend:
[1] = biological target: UGT1A4 (Homo sapiens, UniProt P22310); test: UGT1A4 trifluoperazine N-glucuronidation inhibition in ultrapooled human liver microsomes
[2] = biological target: T1, OAT1 (Homo sapiens, UniProt Q4U2R8); test: OAT1-mediated para-aminohippuric acid uptake in HEK293-OAT1 cells; assay type: in vitro ADME
T1 construct: host or cells: HEK293

[3] = biological target: T2, BCRP (Homo sapiens, UniProt Q9UNQ0); test: BCRP-mediated B to A transport of estrone-3-sulfate in LLC-PK1-BCRP cells; assay type: in vitro ADME
T2 construct: host or cells: LLC-PK1

[4] = biological target: T3, OATP1B1 (Homo sapiens, UniProt Q9Y6L6); test: OATP1B1-mediated estrone-3-sulfate uptake in HEK293-OATP1B1 cells; assay type: in vitro ADME
T3 construct: host or cells: HEK293

[5] = biological target: UGT1A9 (Homo sapiens, UniProt O60656); test: UGT1A9 mycophenolic acid glucuronidation inhibition in ultrapooled human liver microsomes
[6] = biological target: CYP2C19 (Homo sapiens, UniProt P33261); test: CYP2C19 [S]-mephenytoin 4'-hydroxylase inhibition in ultrapooled human liver microsomes; conditions: for IC50: CYP2C19 [S]-mephenytoin 4'-hydroxylase, ultrapooled human liver microsomes
[7] = biological target: UGT1A1 (Homo sapiens, UniProt P22309); test: UGT1A1 SN-38 glucuronidation inhibition in ultrapooled human liver microsomes
[8] = biological target: T4, OCT1 (Homo sapiens, UniProt O15245); test: OCT1-mediated methyl-4-phenylpyridinium uptake in HEK293-OCT1 cells; assay type: in vitro ADME
T4 construct: host or cells: HEK293
T4 sequence (O15245 1-554): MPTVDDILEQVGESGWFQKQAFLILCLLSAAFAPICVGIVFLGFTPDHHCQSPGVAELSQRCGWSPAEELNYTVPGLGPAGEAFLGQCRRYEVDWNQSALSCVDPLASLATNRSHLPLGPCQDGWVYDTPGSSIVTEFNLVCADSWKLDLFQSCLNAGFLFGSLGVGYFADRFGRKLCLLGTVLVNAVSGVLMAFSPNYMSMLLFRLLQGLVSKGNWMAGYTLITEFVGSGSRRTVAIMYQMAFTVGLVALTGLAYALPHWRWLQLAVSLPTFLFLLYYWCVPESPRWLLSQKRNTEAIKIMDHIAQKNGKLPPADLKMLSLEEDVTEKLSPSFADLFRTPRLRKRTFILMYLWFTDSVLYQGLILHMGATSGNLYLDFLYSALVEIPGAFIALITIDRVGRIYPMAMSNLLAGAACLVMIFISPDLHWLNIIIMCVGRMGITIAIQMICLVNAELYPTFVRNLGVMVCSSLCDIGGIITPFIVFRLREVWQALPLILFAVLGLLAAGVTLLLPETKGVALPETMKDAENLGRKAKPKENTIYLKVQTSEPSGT

[9] = biological target: UGT1A6 (Homo sapiens, UniProt P19224); test: UGT1A6 N-acetylserotonin glucuronidation inhibition in ultrapooled human liver microsomes
[10] = biological target: UGT1A3 (Homo sapiens, UniProt P35503); test: UGT1A3 chenodeoxycholic acid 24-acyl-β-glucuronidation inhibition in ultrapooled human liver microsomes
[11] = biological target: T5, OATP1B3 (Homo sapiens, UniProt Q9NPD5); test: OATP1B3-mediated estradiol-17β-D-glucuronide uptake in HEK293-OATP1B3 cells; assay type: in vitro ADME
T5 construct: host or cells: HEK293

[12] = biological target: T6, OAT3 (Homo sapiens, UniProt Q8TCC7); test: OAT3-mediated estrone-3-sulfate uptake in HEK293-OAT3 cells; assay type: in vitro ADME
T6 construct: host or cells: HEK293
T6 sequence (Q8TCC7 1-542): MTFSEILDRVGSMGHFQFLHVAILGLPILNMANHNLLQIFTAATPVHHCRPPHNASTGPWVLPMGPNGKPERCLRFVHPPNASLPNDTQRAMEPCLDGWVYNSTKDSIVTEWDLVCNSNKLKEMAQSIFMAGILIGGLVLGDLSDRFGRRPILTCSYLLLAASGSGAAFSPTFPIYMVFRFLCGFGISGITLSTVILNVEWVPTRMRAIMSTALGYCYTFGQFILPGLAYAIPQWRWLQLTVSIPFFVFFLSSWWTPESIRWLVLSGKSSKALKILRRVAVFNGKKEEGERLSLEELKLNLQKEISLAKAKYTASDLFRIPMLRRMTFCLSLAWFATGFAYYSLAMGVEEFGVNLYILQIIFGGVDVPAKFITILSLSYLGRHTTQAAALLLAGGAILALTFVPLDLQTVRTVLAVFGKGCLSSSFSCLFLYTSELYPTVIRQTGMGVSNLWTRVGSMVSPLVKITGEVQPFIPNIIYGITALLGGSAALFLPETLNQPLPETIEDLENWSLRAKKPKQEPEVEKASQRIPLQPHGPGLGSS

[13] = biological target: UGT2B7 (Homo sapiens, UniProt P16662); test: UGT2B7 naloxone 3-β-D-glucuronidation inhibition in ultrapooled human liver microsomes
[14] = 25 of 58 cases; dose regimen not specified; cited from earlier work
[15] = child, chewing an AB-PINACA contaminated cigarette; cited from earlier work
[16] = biological target: CYP1A2 (Homo sapiens, UniProt P05177); test: CYP1A2 phenacetin O-deethylase inhibition in ultrapooled human liver microsomes
[17] = biological target: CYP2D6 (Homo sapiens, UniProt P10635); test: CYP2D6 bufuralol 1'-hydroxylase inhibition in ultrapooled human liver microsomes
[18] = biological target: CYP2C9 (Homo sapiens, UniProt P11712); test: CYP2C9 diclofenac 4'-hydroxylase inhibition in ultrapooled human liver microsomes; conditions: for IC50: CYP2C9 diclofenac 4'-hydroxylase, ultrapooled human liver microsomes
[19] = biological target: T7, OCT2 (Homo sapiens, UniProt O15244); test: OCT2-mediated methyl-4-phenylpyridinium uptake in HEK293-OCT2 cells; assay type: in vitro ADME
T7 construct: host or cells: HEK293

[20] = biological target: T8, P-gp (Homo sapiens, UniProt P08183); test: P-gp-mediated B to A transport of digoxin in LLC-PK1-MDR1 cells; assay type: in vitro ADME
T8 construct: host or cells: LLC-PK1

[21] = IC50 With NADPH Preincubation, 30-min preincubation with NADPH
[22] = IC50 Without NADPH Preincubation, without NADPH preincubation

Chain of CYP2C9 (P11712 whole entry): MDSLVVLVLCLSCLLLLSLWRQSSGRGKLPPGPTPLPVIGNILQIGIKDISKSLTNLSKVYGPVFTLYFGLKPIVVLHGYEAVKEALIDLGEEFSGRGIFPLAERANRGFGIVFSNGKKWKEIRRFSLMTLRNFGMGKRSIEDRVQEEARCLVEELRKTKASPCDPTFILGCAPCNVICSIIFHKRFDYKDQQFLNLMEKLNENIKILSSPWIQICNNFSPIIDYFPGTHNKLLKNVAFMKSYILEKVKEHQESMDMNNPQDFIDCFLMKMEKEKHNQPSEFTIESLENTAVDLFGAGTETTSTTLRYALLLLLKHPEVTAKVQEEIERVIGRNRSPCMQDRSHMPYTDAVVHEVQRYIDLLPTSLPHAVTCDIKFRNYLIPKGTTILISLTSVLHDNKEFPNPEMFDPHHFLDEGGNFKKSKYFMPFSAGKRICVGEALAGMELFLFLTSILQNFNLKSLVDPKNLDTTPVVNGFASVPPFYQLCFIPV
Chain of CYP2C19 (P33261 whole entry): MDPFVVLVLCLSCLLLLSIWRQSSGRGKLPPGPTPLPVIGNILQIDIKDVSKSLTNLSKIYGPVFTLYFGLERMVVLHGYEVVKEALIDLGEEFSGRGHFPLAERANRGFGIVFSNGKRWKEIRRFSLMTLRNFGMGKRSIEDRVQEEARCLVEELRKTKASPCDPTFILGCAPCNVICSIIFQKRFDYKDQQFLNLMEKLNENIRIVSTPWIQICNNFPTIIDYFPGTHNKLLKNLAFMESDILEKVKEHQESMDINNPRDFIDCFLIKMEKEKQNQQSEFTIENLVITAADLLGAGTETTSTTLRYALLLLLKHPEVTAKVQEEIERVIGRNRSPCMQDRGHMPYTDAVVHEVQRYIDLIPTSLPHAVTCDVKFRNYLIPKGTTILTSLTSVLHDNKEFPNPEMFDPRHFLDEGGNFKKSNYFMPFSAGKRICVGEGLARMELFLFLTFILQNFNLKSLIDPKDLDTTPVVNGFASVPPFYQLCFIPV
Chain of CYP2D6 (P10635 whole entry): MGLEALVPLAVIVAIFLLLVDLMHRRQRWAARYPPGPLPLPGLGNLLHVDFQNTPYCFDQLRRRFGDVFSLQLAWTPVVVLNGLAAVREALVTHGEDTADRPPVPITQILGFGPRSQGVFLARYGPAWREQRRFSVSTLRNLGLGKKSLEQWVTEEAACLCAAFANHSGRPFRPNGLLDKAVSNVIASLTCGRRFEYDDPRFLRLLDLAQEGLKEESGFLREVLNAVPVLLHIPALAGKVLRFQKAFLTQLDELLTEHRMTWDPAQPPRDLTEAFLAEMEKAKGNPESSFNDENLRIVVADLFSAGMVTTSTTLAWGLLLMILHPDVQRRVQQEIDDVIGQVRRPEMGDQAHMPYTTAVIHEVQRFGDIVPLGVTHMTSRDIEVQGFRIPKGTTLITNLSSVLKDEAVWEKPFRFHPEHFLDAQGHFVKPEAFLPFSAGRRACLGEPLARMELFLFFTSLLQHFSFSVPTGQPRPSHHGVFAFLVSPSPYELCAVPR
Chain of CYP1A2 (P05177 whole entry): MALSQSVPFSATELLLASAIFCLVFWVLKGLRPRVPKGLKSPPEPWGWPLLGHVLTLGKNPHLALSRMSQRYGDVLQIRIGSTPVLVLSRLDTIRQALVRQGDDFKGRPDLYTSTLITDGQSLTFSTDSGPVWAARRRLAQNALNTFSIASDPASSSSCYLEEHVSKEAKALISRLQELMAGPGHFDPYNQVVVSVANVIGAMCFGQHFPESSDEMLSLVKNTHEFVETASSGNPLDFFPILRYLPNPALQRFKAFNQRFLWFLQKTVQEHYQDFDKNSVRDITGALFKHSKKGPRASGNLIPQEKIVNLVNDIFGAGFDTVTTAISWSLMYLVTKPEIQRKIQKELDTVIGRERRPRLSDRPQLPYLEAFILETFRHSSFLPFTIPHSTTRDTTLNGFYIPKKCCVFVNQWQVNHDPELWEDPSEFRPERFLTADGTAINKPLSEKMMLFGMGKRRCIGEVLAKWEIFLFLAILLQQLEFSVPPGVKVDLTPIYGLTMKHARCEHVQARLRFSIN
T8 sequence (P08183 whole entry): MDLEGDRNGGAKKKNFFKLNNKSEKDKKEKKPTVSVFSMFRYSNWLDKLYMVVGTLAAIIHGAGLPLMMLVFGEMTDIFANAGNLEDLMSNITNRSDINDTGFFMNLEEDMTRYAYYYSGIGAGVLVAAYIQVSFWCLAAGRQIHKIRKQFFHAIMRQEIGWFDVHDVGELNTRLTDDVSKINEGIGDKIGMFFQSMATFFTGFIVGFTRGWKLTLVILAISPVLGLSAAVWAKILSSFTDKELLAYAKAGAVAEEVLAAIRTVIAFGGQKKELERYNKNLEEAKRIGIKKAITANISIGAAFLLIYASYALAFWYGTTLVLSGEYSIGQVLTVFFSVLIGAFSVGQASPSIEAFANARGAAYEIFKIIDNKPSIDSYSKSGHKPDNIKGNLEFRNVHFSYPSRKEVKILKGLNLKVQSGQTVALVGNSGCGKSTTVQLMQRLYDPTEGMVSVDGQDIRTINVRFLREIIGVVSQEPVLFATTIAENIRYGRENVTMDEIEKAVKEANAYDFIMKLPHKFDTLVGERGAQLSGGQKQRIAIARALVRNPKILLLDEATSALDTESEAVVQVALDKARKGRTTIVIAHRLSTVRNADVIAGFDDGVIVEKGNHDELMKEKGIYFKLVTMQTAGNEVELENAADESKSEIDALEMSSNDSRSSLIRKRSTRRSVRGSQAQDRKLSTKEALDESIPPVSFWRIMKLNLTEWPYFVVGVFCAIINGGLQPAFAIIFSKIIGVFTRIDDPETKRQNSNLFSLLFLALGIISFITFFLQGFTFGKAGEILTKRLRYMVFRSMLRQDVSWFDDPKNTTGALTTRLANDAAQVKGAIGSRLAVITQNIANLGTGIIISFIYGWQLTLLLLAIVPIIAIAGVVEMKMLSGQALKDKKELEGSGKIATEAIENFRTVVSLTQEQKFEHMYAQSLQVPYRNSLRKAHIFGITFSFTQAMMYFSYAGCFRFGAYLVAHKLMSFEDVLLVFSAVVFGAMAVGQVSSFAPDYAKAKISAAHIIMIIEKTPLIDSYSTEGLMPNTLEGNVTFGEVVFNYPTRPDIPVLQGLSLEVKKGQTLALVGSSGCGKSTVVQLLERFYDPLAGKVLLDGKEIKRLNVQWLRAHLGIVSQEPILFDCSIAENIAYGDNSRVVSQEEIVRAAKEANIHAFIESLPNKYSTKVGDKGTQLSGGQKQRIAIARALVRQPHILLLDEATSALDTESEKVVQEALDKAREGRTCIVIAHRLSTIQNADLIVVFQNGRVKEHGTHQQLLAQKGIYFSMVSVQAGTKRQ
Chain of UGT1A6 (P19224 27-532): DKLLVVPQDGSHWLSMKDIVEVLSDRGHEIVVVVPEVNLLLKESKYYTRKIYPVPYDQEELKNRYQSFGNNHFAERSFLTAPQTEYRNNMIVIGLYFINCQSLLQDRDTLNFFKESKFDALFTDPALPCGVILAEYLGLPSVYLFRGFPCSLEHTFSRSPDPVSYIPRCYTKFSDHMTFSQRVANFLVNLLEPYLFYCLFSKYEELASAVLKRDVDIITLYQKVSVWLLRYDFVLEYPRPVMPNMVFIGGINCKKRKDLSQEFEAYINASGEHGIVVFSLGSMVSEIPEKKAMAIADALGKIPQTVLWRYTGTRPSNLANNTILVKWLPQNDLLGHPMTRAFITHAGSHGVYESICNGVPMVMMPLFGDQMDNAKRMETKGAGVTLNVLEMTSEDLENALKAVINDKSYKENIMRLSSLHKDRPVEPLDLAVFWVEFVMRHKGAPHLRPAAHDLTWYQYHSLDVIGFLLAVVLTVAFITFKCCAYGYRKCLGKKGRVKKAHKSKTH
T7 sequence (O15244 whole entry): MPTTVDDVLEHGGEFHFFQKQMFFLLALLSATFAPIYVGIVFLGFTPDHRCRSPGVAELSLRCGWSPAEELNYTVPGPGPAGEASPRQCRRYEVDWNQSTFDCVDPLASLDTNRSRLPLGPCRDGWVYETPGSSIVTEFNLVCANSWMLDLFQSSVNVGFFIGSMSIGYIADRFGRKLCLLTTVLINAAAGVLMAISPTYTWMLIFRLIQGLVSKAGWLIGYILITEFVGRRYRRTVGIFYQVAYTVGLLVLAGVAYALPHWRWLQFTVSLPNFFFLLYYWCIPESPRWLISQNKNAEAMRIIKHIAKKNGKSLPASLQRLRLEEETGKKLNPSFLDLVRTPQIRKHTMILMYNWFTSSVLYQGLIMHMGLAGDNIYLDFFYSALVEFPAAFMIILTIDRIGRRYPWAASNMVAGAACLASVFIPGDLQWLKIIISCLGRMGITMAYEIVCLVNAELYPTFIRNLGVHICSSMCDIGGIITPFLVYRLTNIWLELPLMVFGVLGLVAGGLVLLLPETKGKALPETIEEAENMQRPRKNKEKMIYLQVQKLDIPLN
T5 sequence (Q9NPD5 whole entry): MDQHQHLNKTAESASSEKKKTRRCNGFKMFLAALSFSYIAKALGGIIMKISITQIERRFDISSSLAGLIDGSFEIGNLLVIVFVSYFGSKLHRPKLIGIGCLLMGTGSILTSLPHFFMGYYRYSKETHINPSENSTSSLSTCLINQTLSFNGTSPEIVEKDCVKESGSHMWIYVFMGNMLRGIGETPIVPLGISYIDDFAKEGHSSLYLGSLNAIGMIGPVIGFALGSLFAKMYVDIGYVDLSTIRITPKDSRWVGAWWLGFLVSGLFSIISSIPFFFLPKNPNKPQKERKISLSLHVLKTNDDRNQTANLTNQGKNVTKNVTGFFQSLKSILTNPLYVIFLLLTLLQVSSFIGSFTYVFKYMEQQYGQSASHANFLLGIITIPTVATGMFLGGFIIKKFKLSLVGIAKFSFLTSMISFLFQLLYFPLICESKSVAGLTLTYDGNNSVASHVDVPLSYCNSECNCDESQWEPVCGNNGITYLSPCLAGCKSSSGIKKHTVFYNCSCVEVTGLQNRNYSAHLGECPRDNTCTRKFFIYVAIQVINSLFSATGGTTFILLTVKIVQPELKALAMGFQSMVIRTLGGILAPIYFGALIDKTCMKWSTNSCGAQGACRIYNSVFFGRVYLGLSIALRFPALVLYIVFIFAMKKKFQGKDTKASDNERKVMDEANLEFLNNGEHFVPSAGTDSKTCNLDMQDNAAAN

`CCCCCn1nc(C(=O)N[C@H](C(N)=O)C(C)C)c2ccccc21` [AB-PINACA, N-[(2S)-1-amino-3-methyl-1-oxobutan-2-yl]-1-pentyl-1H-indazole-3-carboxamide] showed an IC50 [1] of over 100 µM, an IC50 [2] of over 250 µM and an IC50 [3] of over 100 µM. The IC50 [4] was over 250 µM, the IC50 [5] was 65.2 µM and the IC50 [6, 21] was 23 µM. It also gave an IC50 [6, 22] of 20 µM, a Ki ([6]; Ki, CYP2C19, [S]-mephenytoin 4'-hydroxylation, human liver microsomes, Lineweaver–Burk and Dixon plots) of 6.7 µM and an IC50 shift at 15 min ([6]; human, liver microsomes, pH 7.4, probe [S]-mephenytoin) of 0.9. The IC50 [7] was over 100 µM, the IC50 [8] was 136 µM and the Ki [8] was 146 µM. For the same compound, the “Mode of Inhibition, OCT1” value ([8]; methyl-4-phenylpyridinium uptake, HEK293-OCT1 cells) was “mixed mode of inhibition”, the IC50 [9] was 94 µM and the IC50 [10] was 84.1 µM. The IC50 [11] was over 250 µM, the IC50 [12] was 11.8 µM and the Ki [12] was 8.3 µM. The “Mode of Inhibition, OAT3” value ([12]; estrone-3-sulfate uptake, HEK293-OAT3 cells) was “competitively inhibited; also recorded: competitive inhibition”, the IC50 [13] was over 100 µM and the “blood (plasma) concentration in suspected impaired driving cases” value [14] was 1.8 to 127 nM. The serum level [15] was 42 ng/mL, the IC50 [16] was over 100 µM and the IC50 ([16]; read-out: IC50 With NADPH Preincubation, CYP1A2 phenacetin O-deethylase, ultrapooled human liver microsomes, 30-min preincubation with NADPH) was over 100 µM. For the same compound, the IC50 [17] was over 100 µM, the IC50 ([17]; read-out: IC50 With NADPH Preincubation, CYP2D6 bufuralol 1'-hydroxylase, ultrapooled human liver microsomes, 30-min preincubation with NADPH) was over 100 µM and the IC50 [18, 21] was 19.3 µM. For the same compound, the IC50 [18, 22] was 17.4 µM, the Ki ([18]; Ki, CYP2C9, diclofenac 4'-hydroxylation, human liver microsomes, Lineweaver–Burk and Dixon plots) was 16.1 µM and the IC50 shift at 15 min ([18]; human, liver microsomes, pH 7.4, probe diclofenac) was 0.9. For the same compound, the IC50 [19] was over 250 µM and the IC50 [20] was over 100 µM.
